Measured values from patent US4153710A, “N-(4-[2-(pyrazole-1-carbonamide)-ethyl]-benzenesulphonyl)-urea” (Starogardzkie Zaklady Farmaceutyczne POLFA, priority 1976, dated 1979).

Key:
glucose concentration = experiment: Blood glucose in normal men volunteers (Table 7); assay type: in vivo; settings: for decrease in blood-glucose vs starting value: 5 mg oral; for Glucose concentration: oral 5 mg SPC-5002 or 12.5 mg Glibornuride
Description: (§1) The hypoglycemic activity of N-{4-[2-(pyrazole-1-carbonamide)-ethyl]-benzenesulphonyl}-ureas prepared according to the present invention can be noticed after their oral administration to mice, rats, rabbits and people and when determining the glucose concentration in blood with a known enzymatic method using glucose oxidase.
(§2) When administered to normal men volunteers it has been stated that 60 minutes after the administration of SPC-5002 a 5 mg oral dose causes the decrease in blood-glucose of 28% in comparision to the starting value and after 90 minutes it reaches 33% (Table 7). Whereas Glibornuride employed in a dose 2.5 times as big on peak of its activity decreases the glucose blood level only of 19%. It can clearly be noticed that there is a positive correlation between the glycemic and insulin level curves. Both examined preparations cause a significant decrease in free fatty acids in blood. […] 60 and 90 minutes after the SPC-5002 administration, the blood-glycose level is decreased to 33 and 52% while in the Placebo group it is maintained in the range of 13-14%.
(§3) The comparison of glucose, insulin and free fatty acids concentration in
(§4) normal men after the oral administration of 5 mg of SPC-5002 or 12.5 mg

[1] = Oral toxicity in mice (LD50); settings: mouse, in vivo
[2] = tested on: free fatty acids concentration; experiment: Free fatty acids in normal men volunteers (Table 7); assay type: in vivo; settings: oral 5 mg SPC-5002 or 12.5 mg Glibornuride
Description: as §2, §3, §4

[3] = tested on: blood-glucose concentration; experiment: Blood-glucose time course up to 24 hours in rats (Table 3); assay type: in vivo; settings: for glucose concentration in blood, average: oral 4 mg/kg
Description: as §1
(Table 2). […] It has been observed that even 9 hours after the administration of one dose of SPC-5002 to rats, the glucose level in blood was decreased, whereas in the case of Glibornuride the glucose level comes back to its normal value in 6 hours from the time of the administration.
The comparison of SPC-5002 and Glibornuride effect on changes in
concentration of rats in time up to 24 hours from the moment of the
in an oral dose containing 4 mg/kg body weight

**Q.** Which “decrease in blood-glucose vs starting value” (glucose concentration; 60 minutes) does the source give for `Cc1ccn(C(=O)NCCc2ccc(S(=O)(=O)NC(=O)NC3CCCCC3)cc2)n1` [SPC-5002, N-{4-[2-(3-methylpyrazole-1-carbonamide)-ethyl]-benzenesulphonyl}-N'-cyclohexylourea] here?
**A.** 28%

**Q.** And the “decrease in blood-glucose vs starting value” (glucose concentration; 90 minutes)?
**A.** 33%

**Q.** And the Glucose concentration (glucose concentration; 0 mins (empty stomach))?
**A.** 96.8 mg/100 cc

**Q.** What about the Glucose concentration (glucose concentration; 30 mins) of the same molecule?
**A.** 88.5 mg/100 cc

**Q.** And the Glucose concentration (glucose concentration; 60 mins)?
**A.** 69.0 mg/100 cc

**Q.** What about the Glucose concentration (glucose concentration; 90 mins) of the same molecule?
**A.** 65.5 mg/100 cc

**Q.** And the Glucose concentration (glucose concentration; 120 mins)?
**A.** 76.5 mg/100 cc

**Q.** What about the Glucose concentration (glucose concentration; 180 mins) of the same molecule?
**A.** 79.7 mg/100 cc

**Q.** And the LD50 [1]?
**A.** > 20000 mg/kg

**Q.** And the “Free fatty acids concentration” value ([2]; 0 mins (empty stomach))?
**A.** 0.63 mEq/1000 cc

**Q.** What about the “Free fatty acids concentration” value ([2]; 30 mins) of the same molecule?
**A.** 0.48 mEq/1000 cc

**Q.** What about the “Free fatty acids concentration” value ([2]; 60 mins) of the same molecule?
**A.** 0.46 mEq/1000 cc

**Q.** What about the “Free fatty acids concentration” value ([2]; 90 mins) of the same molecule?
**A.** 0.48 mEq/1000 cc

**Q.** And the “Free fatty acids concentration” value ([2]; 120 mins)?
**A.** 0.51 mEq/1000 cc

**Q.** What about the “Free fatty acids concentration” value ([2]; 180 mins) of the same molecule?
**A.** 0.52 mEq/1000 cc

**Q.** What about the “duration of decreased blood glucose after one dose” value ([3]; one dose) of the same molecule?
**A.** ≥ 9 h

**Q.** And the “duration of hypoglycemic activity relative to Glibornuride” value ([3]; one dose)?
**A.** longer hypoglycemic activity than the administration of Glibornuride

**Q.** And the “glucose concentration in blood, average” value ([3]; 0 h)?
**A.** 82 mg/100 cc

**Q.** And the “glucose concentration in blood, average” value ([3]; 1 h)?
**A.** 58 mg/100 cc

**Q.** And the “glucose concentration in blood, average” value ([3]; 3 h)?
**A.** 45 mg/100 cc

**Q.** And the “glucose concentration in blood, average” value ([3]; 6 h)?
**A.** 65 mg/100 cc

**Q.** And the “glucose concentration in blood, average” value ([3]; 9 h)?
**A.** 70 mg/100 cc

**Q.** What about the “glucose concentration in blood, average” value ([3]; 24 h) of the same molecule?
**A.** 85 mg/100 cc
